Data as given in patent US20050031717A1, “Salt taste modification” (priority 2003, published 2005).
Entries after “also recorded” stand apart in the source; their conditions may differ.

Tests used:
[1] = system: amiloride-insensitive salt taste receptor; assay: Rat chorda tympani (CT) taste nerve recordings; assay type: in vivo; conditions: for effect on NaCl chorda tympani response: no Bz; for effect on RTX-enhanced NaCl chorda tympani response: 100 mM NaCl+5 μM benzamil+0.75 μM RTX, capsazepine 0-500 μM
Description: Chorda tympani nerve recordings. Recordings from the chorda tympani (CT) taste nerves of anesthetized rats were made. Recordings were made with various salt stimuli and with the taste receptive field under current or voltage clamp in order to observe the effect, if any, of modulating the driving force for ions through putative […] apical membrane ion channels involved in salt taste reception.

[2] = system: amiloride-insensitive salt taste receptor; assay: Chorda tympani responses in wildtype C57BL/6J mice; assay type: in vivo, mouse
[3] = system: amiloride-insensitive salt taste receptor
[4] = system: polarized rat fungiform taste receptor cells; assay: [Na+]i measurement (Na-green F490) in polarized taste receptor cells, unilateral apical Na+ flux; assay type: cell-based
Description: [Na^+]i measurement in polarized taste receptor cells. A small piece of the anterior lingual epithelium containing a single fungiform papilla was mounted in a special microscopy chamber (Lyall et al., 2002, supra). Relative changes in intracellular sodium activity ([Na^+]i) were monitored in polarized taste receptor cells with the sodium sensitive fluoroprobe sodium-green. The taste receptor cells in the taste bud were visualized from the basolateral side through a 40× objective using a fluorescence microscope.

[5] = fixed RTX concentration (0.75 μM), 100 mM NaCl+5 μM Bz

Nc1ncnc2c1ncn2[C@@H]1O[C@H](COP(=O)(O)OP(=O)(O)OP(=O)(O)O)[C@@H](O)[C@H]1O [ATP, Adenosine 5′-triphosphate]
effect on chorda tympani response compared to 100 mM NaCl+5 μM benzamil+100 μM evodiamine ([1]; 100 μM evodiamine+500 μM ATP, 100 mM NaCl+5 μM benzamil): further enhancement | effect on the temperature threshold of the Bz-insensitive NaCl chorda tympani response ([1]; ATP 500 μM alone): no effect

COc1cc(CNC(=S)CC(COC(=O)C(C)(C)C)Cc2ccc(C)c(C)c2)ccc1O (centres unmarked) [Agonist 23, 2-(3,4-dimethylbenzyl)-3-{[(4-hydroxy-3-methoxybenzyl)amino]carbothioyl}propyl pivalate]
effect on CT response at higher concentrations ([1]; 100 mM NaCl+5 μM benzamil): decrease | effect on CT response at low concentration ([1]; 100 mM NaCl+5 μM benzamil): enhances | temperature dependence of effectiveness ([1]; 41° versus 23°): more effective at 41°

NC(=NCc1ccccc1)NC(=O)c1nc(Cl)c(N)nc1N [Bz, benzamil]
part of the NaCl chorda tympani response that was Bz-insensitive ([2]; wildtype mice, 23°, 100 mM NaCl+5 μM Bz): about 25%

C=C(C)[C@]12C[C@@H](C)[C@@]34O[C@](Cc5ccccc5)(O[C@@H]1[C@@H]3C=C(COC(=O)Cc1ccc(O)c(OC)c1)C[C@]1(O)C(=O)C(C)=C[C@@H]41)O2 [RTX, resiniferatoxin]
CT response profile ([1]; 10 mM KCl+0.5 μM RTX at 23°, no ethanol): only a transient phasic response | effect of RTX on the CT response to ethanol ([1]; 10 mM KCl+40% ETH+0.5 μM RTX, 23° and 42°): enhanced the response | effect on temperature threshold of the KCl CT response ([1]; 10 mM KCl+60% ETH+0.5 μM RTX): without affecting the temperature threshold | effect on NaCl chorda tympani response ([1]; 100 mM NaCl+1 μM RTX): reversibly increased | concentration at which enhancement of the Bz-insensitive NaCl chorda tympani response begins ([1]; 100 mM NaCl+5 μM Bz): 0.1 µM | concentration at which the Bz-insensitive NaCl chorda tympani response decreased to rinse level (eliminated) ([1]; 100 mM NaCl+5 μM Bz): around 10 μM | concentration at which the NaCl response returned to control level ([1]; 100 mM NaCl+5 μM Bz): around 3 μM | concentration of maximum enhancement of the Bz-insensitive NaCl chorda tympani response ([1]; 100 mM NaCl+5 μM Bz): 1 µM | rank order potency on the Bz-insensitive NaCl chorda tympani response ([1]; 100 mM NaCl+5 μM Bz): RTX>CAP>CPC | pH of greatest RTX-induced increase in the Bz-insensitive NaCl chorda tympani response ([1]; 100 mM NaCl+5 μM Bz+0.5 μM RTX, pHo 2-10): 6 | effect on Bz-insensitive NaCl chorda tympani response ([1]; 100 mM NaCl+5 μM Bz+1 μM RTX): same magnitude of enhancement | effect on NaCl chorda tympani response ([1]; 100 mM NaCl+10 μM RTX): reversibly decreased | effect on Bz-insensitive NaCl chorda tympani response ([1]; NaCl+5 μM Bz+10 μM RTX): reduced the response (j-k) to rinse level | effect on the CT responses to sucrose, quinine or H+ ions ([1]; rat, in vivo): no effect | effect on response to NaCl+Bz ([3]; VR1 knockout mice, 0.75 μM RTX, 23° and 42°): No effects | effect on Bz-insensitive NaCl chorda tympani response ([2]; wildtype mice, 23°, 100 mM NaCl+5 μM Bz+0.75 μM RTX): enhanced | response to RTX at 42° ([2]; wildtype mice, 42°, 100 mM NaCl+5 μM Bz+0.75 μM RTX): significantly enhanced relative to 23°

COc1cccc(NC(=O)C=Cc2ccc(Cl)cc2)c1 [SB-366791, N-(3-methoxyphenol)-4-chlorocinnamide]
effect on Bz-insensitive NaCl chorda tympani response at 23° and elevated temperatures ([1]; 1 μM SB-366791, 100 mM NaCl+5 μM Bz): completely blocked | effect on CT response to RTX+ETH ([1]; RTX+ETH+0.1 μM SB-366791, 23° and 42°): completely inhibited the tonic component | effect on transient phasic responses to ethanol ([1]; ethanol solutions containing 0.1 mM SB-366791): did not affect | increase in F490 on increase of apical Na+ concentration ([4]; 150 mM NaCl+): completely inhibited; also recorded: no increase | increase in F490 above baseline with ethanol ([4]; 150 mM NaCl++40% ETH): no further increase

COc1cc(CNC(=O)CCCC/C=C/C(C)C)ccc1O [capsaicin]
chorda tympani response to KCl and NH4Cl at high capsaicin ([1]; 100 mM KCl, 100 mM NH4Cl, 200 μM capsaicin): a residual response remained | concentration at which the Bz-insensitive NaCl chorda tympani response decreased to rinse level (eliminated) ([1]; 100 mM NaCl+5 μM Bz): 200 µM | concentration of maximum enhancement of the Bz-insensitive NaCl chorda tympani response ([1]; 100 mM NaCl+5 μM Bz): 40 µM | rank order potency on the Bz-insensitive NaCl chorda tympani response ([1]; 100 mM NaCl+5 μM Bz): RTX>CAP>CPC | concentration of maximum enhancement of the Bz-insensitive NaCl chorda tympani response ([1]; 100 mM NaCl+5 μM Bz, listed as CAP): around 40 μM

Oc1cc2c(cc1O)CN(C(=S)NCCc1ccc(Cl)cc1)CCC2 [capsazepine]
effect on RTX-enhanced NaCl chorda tympani response [1]: monotonically reduced | effect on RTX-enhanced NaCl chorda tympani response ([1]; listed as CZP): dose-dependent inhibition | effect on RTX concentration response curve of the Bz-insensitive NaCl chorda tympani response ([1]; CZP 10 μM, RTX 0-10 μM): shifted the RTX concentration response curve to the right | CZP concentration at which chorda tympani responses decreased to the level with NaCl alone [1, 5]: 100 µM | CZP concentration at which the chorda tympani response was below the level with NaCl alone [1, 5]: ≥ 250 µM | increase in F490 relative to 150 mM NaCl+5 mM Bz+40% ETH ([4]; 150 mM NaCl+5 mM Bz+40% ETH+100 mM CZP): significantly smaller increase

CCO [ethanol]
effect on CT response in the presence of RTX ([1]; 10 mM KCl+0.5 μM RTX, 40% ETH or 60% ETH, 23°): increased the CT response in a dose dependent manner | CT response profile ([1]; 10 mM KCl+20% ETH at 42°): phasic response followed by a sustained tonic phase | enhancement of the magnitude of the tonic component at 42° relative to 23° ([1]; 10 mM KCl+20% ETH+0.5 μM RTX): 50% | CT response profile ([1]; 10 mM KCl+20% ETH+0.5 μM RTX at 23°): both a phasic component and a sustained tonic component | CT response profile ([1]; 10 mM KCl+20% ETH, 23°): only a transient phasic response | CT response profile ([1]; 10 mM KCl+20% ETH, 23°, listed as ETH): did not increase the CT response above baseline | CT response profile ([1]; 10 mM KCl+30% ETH): only a transient phasic response | magnitude of CT response at 42° relative to 23° ([1]; 10 mM KCl+40% ETH): enhanced | CT response profile ([1]; 10 mM KCl+40% ETH, 23°, listed as ETH): transient phasic response that was followed by a sustained tonic response; also recorded: both a phasic and a tonic component | CT response profile ([1]; 10 mM KCl+50% ETH and 10 mM KCl+60% ETH): both phasic and tonic components | temperature producing a sharp increase in the KCl CT response ([1]; 10 mM KCl+60% ETH): 380 | temperature of maximum enhancement of the KCl CT response ([1]; 10 mM KCl+60% ETH, 23° to 55.5°): 41 ° | effect on magnitude of the Bz-insensitive NaCl CT response ([1]; 100 mM NaCl+5 mM Bz+60% ethanol): decreased | effect on magnitude of the Bz-insensitive NaCl CT response ([1]; 100 mM NaCl+5 mM Bz+ETH, 20% to 40% ethanol): dose-dependent increase | effect of 42° on CT response to ethanol relative to 23° ([1]; 80% ethanol, H2O rinse): no effect | ethanol concentration that inhibited CT responses ([1]; KCl and NaCl): > 60% | CT response to ethanol alone ([1]; ethanol 40%-100% in distilled H2O, 23°): only a transient phasic component | CT response to R+60% ETH ([3]; VR1 KO mice, 10 mM KCl+60% ETH): no CT response | effect on the NaCl CT response or the Bz-insensitive NaCl CT response ([3]; VR1 KO mice, 60% ETH): no effect | increase in F490 relative to zero ethanol ([4]; 150 NaCl+5 mM Bz+10% ethanol): bigger increase | increase in F490 relative to 10% ethanol ([4]; 150 NaCl+5 mM Bz+40% ethanol): further increase | change in F490 relative to zero ethanol ([4]; Na+-free Ringer's solution, 10% or 40% ethanol): no changes | CT response relative to 10 mM KCl ([2]; WT mice, 10 mM KCl+60% ETH): greater CT response | effect on Bz-insensitive NaCl CT response ([2]; WT mice, 100 mM NaCl+5 μM Bz+60% ETH): inhibited the CT response

Evodiamine
effect on chorda tympani response in rinse solution ([1]; 100 μM evodiamine in 10 mM KCl): no effect | concentration at which enhancement of the Bz-insensitive NaCl chorda tympani response begins ([1]; 100 mM NaCl+5 μM Bz): 30 µM | concentration of maximum enhancement of the Bz-insensitive NaCl chorda tympani response ([1]; 100 mM NaCl+5 μM Bz): 300 µM | concentration at which the response is the same as the control response ([1]; 100 mM NaCl+5 μM benzamil): 3 mM | effect on chorda tympani response at concentrations higher than 3 mM ([1]; 100 mM NaCl+5 μM benzamil): inhibited
